According to article PMC6182184 (2018):

System: SRB-2 (RNA, aptamer) GGAACCUCGCUUCGGCGAUGAUGGAGAGGCGCAAGGUUAACCGCCUCAGGUUCC
Test: fluorescence titration
Settings: 125 mM KCl, 5 mM MgCl2, 20 mM Hepes pH 7.4, 25 °C, RNA titrated

Row | SMILES | Kd (50 nM probe) | Kd (10 nM probe)
1 | Nc1c2ccccc2nc2ccccc12 | 2.96 ± 0.24 µM | –
2 | CCN(CC)c1ccc2cc3ccc(=[N+](CC)CC)cc-3oc2c1 | – | 0.251 ± 0.05 µM
3 | CCN(CC)c1ccc2nc3ccc(N(CC)CC)cc3[o+]c2c1 | 0.26 ± 0.021 µM | –
4 | CN(C)c1ccc2cc3ccc(N(C)C)cc3nc2c1 | – | 0.088 ± 0.008 µM
5 | CN(C)c1ccc2cc3ccc(N(C)C)cc3[o+]c2c1 | – | 0.059 ± 0.009 µM
